From patent US4176184A, “Imidazoisoquinoline-diones and salts thereof” (Boehringer Ingelheim GmbH, priority 1977, dated 1979)
Structures can show the parent of a compound that is named as a salt. Where two headings read alike, the source gives them in different places.

What was measured:
[1] = system: arterial blood pressure and dp/dt max. (left ventricle); assay: Cardiotonic and blood pressure effects in anesthetized cats; assay type: in vivo, cat; conditions: 2 mg/kg intravenously; for Change in blood pressure (first value of the pair printed with a slash): first of two values; for Change in blood pressure (second value of the pair printed with a slash): second of two values; for change in vivo at 2 mg/kg: Felis catus, iv, dp/dt max., index of contractility, read-out: Increase in dp/dt
Description: 1. Cardiotonic and blood pressure effects
Cats of both sexes with a body weight of 2 to 4 kg were anesthetized by intraperitoneal injection of 30 mgm/kg of sodium pentobarbital. The arterial blood pressure was measured by a Statham pressure transducer (P23 Dc) from the aorta abdominalis via a PVA-Catheter, which was inserted through the right arteria femoralis. The ventricle pressure was measured by a cathetertip manometer (type MILLAR PC-350), which was introduced into the left ventricle via the right arteria carotis. The indices of contractility dp/dt max. were obtained by a differentiating amplifier. The arterial blood pressure and dp/dt max. were continuously recorded by direct-writer. The test compounds were injected intravenously at 2 mg/kg.

Acute toxicity in mice = conditions: mouse, in vivo, dose at which 50% of the animals died
[2] = system: isolated electrically stimulated left auricle of the guinea pig; assay: Effect on the effective refractory period of the isolated electrically stimulated left auricle of the guinea pig; conditions: Cavia porcellus; Tyrode's solution, 37° C.; cumulative dosing; graphically determined from dose response curves; read-out: EC50 (concentration which reduces the maximum stimulation frequency by 50%)
Description: 2. Effect on the effective refractory period of the isolated electrically stimulated left auricle of the guinea pig
Guinea pigs of both sexes were killed by a blow on the neck. After opening the thorax, the heart was quickly removed and transferred into a Tyrode's solution (37° C.). The auricles were separated from the ventricles along the Annulus fibrosus, and only the left auricles were used. Electrical stimulation was performed by a Grass stimulator, S4G, with square wave impulses of 1 millisecond duration and a stimulation voltage of 12 V. The auricles were suspended in Tyrode's solution at 37° C. containing 136.8 mVal NaCl, 2.68 mVal KCL, 0.2625 mVal MgCl2, 0.417 mVal NaH2 PO4, 11.9 mVal NaHCO3, 1.8 mVal CaCl, and 3 gm of glucose perliter. The solution was continuously aerated with O2 /CO2 (98%/2%). The isometric contractions were measured with a force displacement transducer and recorded on a Grass polygraph (P5). The number of the contractions was counted out and compared with the frequency indicated at the stimulator.
The maximum stimulation frequency was determined by increasing the stimulation rate every 10 seconds by 1 Hz. The maximum stimulation frequency was measured in preliminary tests by determining the average value. During the intervals of 5 minutes each between the measurements, the stimulation rate was 0.5 Hz.
After the determination of the average value the test compound was added to the Tyrode's solution and the stimulation rate was maintained at 0.5 Hz. During the first 5 minutes the inotropic effect of the compound was observed. Measurements were performed every 5 and 10 minutes after addition of the test compound. The average value resulting from the two tests (value at 5 minutes and 10 minutes, respectively) was taken as the maximum stimulation frequency after addition of the test compound. At first small doses were given, and after determination of the maximum stimulation frequency the dose was increased cumulatively and the maximum stimulation frequency for that dose was measured.
The maximum stimulation frequency is measured by increasing the stimulation rate. When the interval between two stimuli is shortened, a stimulation rate is reached at which every second stimulation falls into the refractory period of the foregoing contraction and will not be answered with a contraction. So, the maximum stimulation frequency is a measure of the effective refractory period. Compounds which reduce the maximum stimulation frequency, prolong the refractory period.
From the dose response curves the concentrations which reduce the maximum stimulation frequency by 50%, were graphically determined: […]

[3] = system: chloroform-induced ventricular fibrillation; assay: Antiarrhythmic effect against chloroform-induced ventricular fibrillation in mice; assay type: in vivo; conditions: Mus musculus, 1 min, male mice, ventricular fibrillation prevented in 50% of animals
Description: 3. Antiarrhythmic effect against chloroform-induced ventricular fibrillation in mice
On placing a mouse into a chloroform-saturated atmosphere, the animal becomes anesthetized after 40 sec., the spontaneous respiration stops, and after 20 sec. more, gasping respiration sets in.
Immediately after the gasping respiration has ceased, the mouse is taken out of the chloroform atmosphere, the thorax is opened, and the heart is quickly exposed to allow inspection of the heart movement. For 1 minute after opening the thorax, spontaneous ventricular fibrillation occurs in nearly all the animals or can be induced by touching the heart with tweezers.
Pre-treatment with antiarrhythmic compounds reduces the number of animals which show fibrillation in a dose-dependent way. The dose which reduces the number of animals having fibrillations by 50% (ED50) is calculated by means of dose-response curves and the standard deviation is determined [MILLER, L. C. and TAINTER, M. L., Proc. Soc. Exp. Biol. Med. 57, 261 (1944)].
The tests were performed on male mice, body weight 20-25 gm. Each dose was tested on 10 animals.
The dose was determined, at which after i.v. and p.o. administration one minute before starting the test, the ventricular fibrillation was prevented in 50% of the animals.

[4] = po, read-out: Toxicity (LD50) p.o.
[5] = iv, i.v. one minute before test, read-out: ED50 i.v.
[6] = po, p.o. one minute before test, read-out: ED50 p.o.

| Structure (SMILES) | Duration [1] [min] | Change in blood pressure (first value of the pair printed with a slash) [1] [mm Hg] | Change in blood pressure (second value of the pair printed with a slash) [1] [mm Hg] | change in vivo at 2 mg/kg [1] [%] | LD50 (Acute toxicity in mice; [4]) [mg/kg] | EC50 [2] [µg/mL] | ED50 [3, 5] [mg/kg] | ED50 [3, 6] [mg/kg] | LD50 (Acute toxicity in mice; ip, read-out: Toxicity (LD50) i.p.) [mg/kg] |
| --- | --- | --- | --- | --- | --- | --- | --- | --- | --- |
| COc1ccc(-c2nc3ccc4c(c3[nH]2)C(=O)NC(=O)C4(C)C)c(OC)c1 [A, 7,7-Dimethyl-2-(2,4-dimethoxy-phenyl)-5H,7H-imidazo[4,5-h]isoquinoline-4,6-dione hydrochloride] | > 24 | -49 | -48 | – | – | – | – | – | – |
| COc1cc(S(C)(=O)=O)ccc1-c1nc2ccc3c(c2[nH]1)C(=O)NC(=O)C3(C)C [B, 7,7-Dimethyl-2-(2-methoxy-4-methylsulfonyl-phenyl)-5H,7H-imidazo[4,5-h]isoquinoline-4,6-dione] | > 56 | -52 | -80 | – | – | – | – | – | – |
| CC1(C)C(=O)NC(=O)c2c1ccc1[nH]c(CCc3ccccc3)nc21 [C] | > 20 | -40 | -50 | – | – | – | – | – | – |
| COc1ccccc1-c1nc2ccc3c(c2[nH]1)C(=O)NC(=O)C3(C)C [Compound E, 7,7-Dimethyl-2-(2-methoxy-phenyl)-5H,7H-imidazo[4,5-h]isoquinoline-4,6-dione hydrochloride] | 12 | -46 | -63 | – | – | – | – | – | – |
| CC1(C)C(=O)NC(=O)c2c1ccc1nc(Cc3ccccc3)[nH]c21 [D, 7,7-Dimethyl-2-benzyl-5H,7H-imidazo[4,5-h]isoquinoline-4,6-dione] | > 57 | -67 | -63 | 110 | > 300 | – | – | – | – |
| CC1(C)C(=O)NC(=O)c2c1ccc1nc(C3CCCCC3)[nH]c21 [F] | > 42 | -23 | -40 | – | > 300 | – | – | – | – |
| CC1(C)C(=O)NC(=O)c2c1ccc1nc(-c3ccc(Cl)cc3)[nH]c21 [G, 7,7-Dimethyl-2-(4-chloro-phenyl)-5H,7H-imidazo[4,5-h]isoquinoline-4,6-dione hydrochloride] | 9 | -40 | -30 | – | – | – | – | – | – |
| CSc1ccc(-c2nc3ccc4c(c3[nH]2)C(=O)NC(=O)C4(C)C)cc1 [H, 7,7-Dimethyl-2-(4-methylmercapto-phenyl)-5H,7H-imidazo[4,5-h]isoquinoline-4,6-dione] | > 12 | -45 | -45 | – | – | – | – | – | – |
| COc1ccc(-c2nc3ccc4c(c3[nH]2)C(=O)NC(=O)C4(C)C)cc1 [I, 7,7-Dimethyl-2-(4-methoxy-phenyl)-5H,7H-imidazo[4,5-h]isoquinoline-4,6-dione hydrochloride] | > 19 | -33 | -46 | – | – | – | – | – | – |
| CC1(C)C(=O)NC(=O)c2c1ccc1nc(-c3ccc(O)cc3)[nH]c21 [J, 7,7-Dimethyl-2-(4-hydroxy-phenyl)-5H,7H-imidazo[4,5-h]isoquinoline-4,6-dione hydrochloride] | > 29 | -47 | -58 | – | – | – | – | – | – |
| COc1ccc(S(C)(=O)=O)cc1-c1nc2ccc3c(c2[nH]1)C(=O)NC(=O)C3(C)C [K, 7,7-Dimethyl-2-(2-methoxy-5-methylsulfonyl-phenyl)-5H,7H-imidazo[4,5-h]isoquinoline-4,6-dione] | > 107 | -70 | -67 | 157 | > 300 | – | – | – | – |
| COc1ccc([S+](C)[O-])cc1-c1nc2ccc3c(c2[nH]1)C(=O)NC(=O)C3(C)C (centres unmarked) [L, 7,7-Dimethyl-2-(2-methoxy-5-methylsulfinyl-phenyl)-5H,7H-imidazo[4,6-h]isoquinoline-4,6-dione hydrochloride] | > 70 | -42 | -53 | – | – | – | – | – | – |
| CC1(C)C(=O)NC(=O)c2c1ccc1nc(C3CC3)[nH]c21 [M, hydrochloride] | > 55 | -41 | -49 | 108 | – | – | – | – | – |
| CCN(CC)CCN1C(=O)c2c(ccc3nc(-c4ccccc4)[nH]c23)C(C)(C)C1=O [N, 7,7-Dimethyl-2-phenyl-5-(2-diethylamino-ethyl)-5H,7H-imidazo[4,5-h]isoquinoline-4,6-dione dihydrochloride] | – | – | – | – | – | 1.8 | 2.4 | 21.2 | – |
| CCN(CC)CCCN1C(=O)c2c(ccc3nc(-c4ccccc4)[nH]c23)C(C)(C)C1=O [O, 7,7-Dimethyl-2-phenyl-5-(3-diethylamino-propyl)-5H,7H-imidazo[4,5-h]isoquinoline-4,6-dione dihydrochloride] | – | – | – | – | 92 | 5 | 6.4 | 29 | 61 |
| CC1(C)C(=O)N(CCCN2CCCCC2)C(=O)c2c1ccc1nc(-c3ccccc3)[nH]c21 [P, 7,7-Dimethyl-2-phenyl-5-(3-piperidino-propyl)-5H,7H-imidazo[4,5-h]isoquinoline-4,6-dione dihydrochloride] | – | – | – | – | – | 6.7 | 10.5 | 130 | – |
| CN(C)CCN1C(=O)c2c(ccc3nc(-c4ccccc4)[nH]c23)C(C)(C)C1=O [Q, 7,7-Dimethyl-2-phenyl-5-(2-dimethylamino-ethyl)-5H,7H-imidazo[4,5-h]isoquinoline-4,6-dione-dihydrochloride] | – | – | – | – | – | 4.8 | 6.1 | 23.5 | – |
